Results from ChEMBL document CHEMBL5385847, “Design, synthesis and biological evaluation of a new class of 7H-pyrrolo[2,3-d]pyrimidine derivatives as Mps1 inhibitors for the treatment of breast cancer” (Eur J Med Chem, 2023).
Activity calls are given as the source filed them. The rule behind the calls is not given here.

Legend:
4T1-Luc [1] = experiment: Inhibition of cell proliferation in mouse 4T1-Luc cells xenografted in BALB/C mouse assessed as reduction in Ki-67 positive cells at 30 to 60 mg/kg, po qd treated for 15 days by IHC analysis; assay type: functional, organism-based; conditions: dose 30-60 mg/kg, time 15.0 day
[2] = Toxicity in BALB/C mouse xenografted with mouse 4T1-Luc cells assessed as change in blood biochemical parameters at 30 to 60 mg/kg, po qd treated for 15 days; assay type: organism-based; conditions: in vivo, 360 h, dose 30-60 mg/kg, time 15 day
4T1-Luc [3] = experiment: Antitumor activity against mouse 4T1-Luc cells xenografted in BALB/C mouse assessed as reduction in tumor growth at 30 to 60 mg/kg, po qd measured after 10 days by IVIS analysis; assay type: functional, organism-based; conditions: dose 30-60 mg/kg, time 10.0 day
4T1 [4] = experiment: Induction of apoptosis in 4T1 cells assessed as increase in cleaved PARP level upto 3 uM incubated for 48 hrs by Western blot analysis; assay type: functional, cell-based; conditions: Mus musculus
MCF7 [5] = experiment: Induction of apoptosis in human MCF7 cells assessed as increase in cleaved PARP level upto 3 uM incubated for 48 hrs by Western blot analysis; assay type: functional, cell-based
4T1 [6] = experiment: Induction of apoptosis in 4T1 cells assessed as necrotic cells at 1 uM incubated for 48 hrs by Annexin V-FITC/PI staining based flow cytometry (reference value: 0.20 %); assay type: functional, Mus musculus
4T1 [7] = experiment: Induction of apoptosis in 4T1 cells assessed as late apoptotic cells at 1 uM incubated for 48 hrs by Annexin V-FITC/PI staining based flow cytometry (reference value: 1.73 %); assay type: functional, Mus musculus
4T1 [8] = experiment: Induction of apoptosis in 4T1 cells assessed as late apoptotic cells at 0.5 uM incubated for 48 hrs by Annexin V-FITC/PI staining based flow cytometry (reference value: 1.73 %); assay type: functional, Mus musculus
4T1 [9] = experiment: Induction of apoptosis in 4T1 cells assessed as early apoptotic cells at 0.5 uM incubated for 48 hrs by Annexin V-FITC/PI staining based flow cytometry (reference value: 0.32 %); assay type: functional, Mus musculus
MCF7 [10] = experiment: Induction of apoptosis in human MCF7 cells assessed as early apoptotic cells at 5 uM incubated for 48 hrs by Annexin V-FITC/PI staining based flow cytometry (reference value: 1.19 %); assay type: functional
MCF7 [11] = experiment: Induction of apoptosis in human MCF7 cells assessed as early apoptotic cells at 0.5 uM incubated for 48 hrs by Annexin V-FITC/PI staining based flow cytometry (reference value: 1.19 %); assay type: functional
MCF7 [12] = experiment: Induction of cell cycle arrest in human MCF7 cells at G2/M phase assessed as decrease in CDK1 level incubated for 24 hrs by Western blot analysis; assay type: functional, cell-based; conditions: dose <= 3.0 µM
4T1 [13] = experiment: Induction of cell cycle arrest in 4T1 cells at G2/M phase assessed as decrease in cyclin B1 level incubated for 24 hrs by Western blot analysis; assay type: functional, cell-based; conditions: Mus musculus, dose <= 3.0 µM
MCF7 [14] = experiment: Induction of cell cycle arrest in human MCF7 cells at G2/M phase assessed as decrease in cyclin B1 level incubated for 24 hrs by Western blot analysis; assay type: functional, cell-based; conditions: dose <= 3.0 µM
4T1 [15] = experiment: Antiproliferative activity against 4T1 cells upto 5 uM measured after 14 days by colony formation assay; assay type: functional, cell-based; conditions: Mus musculus, time 14.0 day
MCF7 [16] = experiment: Antiproliferative activity against human MCF7 cells upto 5 uM measured after 14 days by colony formation assay; assay type: functional, cell-based; conditions: time 14.0 day
GES1 = experiment: Antiproliferative activity against human GES1 cells assessed as inhibition of cell viability by MTT assay; assay type: toxicity, cell-based
Vero = experiment: Antiproliferative activity against African green monkey Vero cells assessed as inhibition of cell viability by MTT assay; assay type: toxicity, cell-based; conditions: chlorocebus sabaeus
A549 = experiment: Antiproliferative activity against human A549 cells assessed as inhibition of cell viability upto 10 uM incubated for 72 hrs by MTT assay; assay type: functional, cell-based
HCT-116 = experiment: Antiproliferative activity against human HCT-116 cells assessed as inhibition of cell viability upto 10 uM incubated for 72 hrs by MTT assay; assay type: functional, cell-based
4T1 [17] = experiment: Antiproliferative activity against 4T1 cells assessed as inhibition of cell viability upto 10 uM by MTT assay; assay type: functional, cell-based; conditions: Mus musculus, time 24-72 hrs, TDE = time-dependent effect
MCF7 [18] = experiment: Antiproliferative activity against human MCF7 cells assessed as inhibition of cell viability upto 10 uM by MTT assay; assay type: functional, cell-based; conditions: time 24-72 hrs, TDE = time-dependent effect
MDA-MB-231 = experiment: Antiproliferative activity against human MDA-MB-231 cells assessed as inhibition of cell viability upto 10 uM incubated for 72 hrs by MTT assay; assay type: functional, cell-based
HEY = experiment: Antiproliferative activity against human HEY cells assessed as inhibition of cell viability by MTT assay; assay type: functional, cell-based
MCF7 [19] = experiment: Antiproliferative activity against human MCF7 cells assessed as inhibition of cell viability by MTT assay; assay type: functional, cell-based
[20] = biological target: Angiopoietin-1 receptor (Homo sapiens) (UniProt Q02763); experiment: Inhibition of human Tie2 at 0.1 uM by KINOMEscan assay relative to control
Chain of Angiopoietin-1 receptor (Homo sapiens) (Q02763 whole entry): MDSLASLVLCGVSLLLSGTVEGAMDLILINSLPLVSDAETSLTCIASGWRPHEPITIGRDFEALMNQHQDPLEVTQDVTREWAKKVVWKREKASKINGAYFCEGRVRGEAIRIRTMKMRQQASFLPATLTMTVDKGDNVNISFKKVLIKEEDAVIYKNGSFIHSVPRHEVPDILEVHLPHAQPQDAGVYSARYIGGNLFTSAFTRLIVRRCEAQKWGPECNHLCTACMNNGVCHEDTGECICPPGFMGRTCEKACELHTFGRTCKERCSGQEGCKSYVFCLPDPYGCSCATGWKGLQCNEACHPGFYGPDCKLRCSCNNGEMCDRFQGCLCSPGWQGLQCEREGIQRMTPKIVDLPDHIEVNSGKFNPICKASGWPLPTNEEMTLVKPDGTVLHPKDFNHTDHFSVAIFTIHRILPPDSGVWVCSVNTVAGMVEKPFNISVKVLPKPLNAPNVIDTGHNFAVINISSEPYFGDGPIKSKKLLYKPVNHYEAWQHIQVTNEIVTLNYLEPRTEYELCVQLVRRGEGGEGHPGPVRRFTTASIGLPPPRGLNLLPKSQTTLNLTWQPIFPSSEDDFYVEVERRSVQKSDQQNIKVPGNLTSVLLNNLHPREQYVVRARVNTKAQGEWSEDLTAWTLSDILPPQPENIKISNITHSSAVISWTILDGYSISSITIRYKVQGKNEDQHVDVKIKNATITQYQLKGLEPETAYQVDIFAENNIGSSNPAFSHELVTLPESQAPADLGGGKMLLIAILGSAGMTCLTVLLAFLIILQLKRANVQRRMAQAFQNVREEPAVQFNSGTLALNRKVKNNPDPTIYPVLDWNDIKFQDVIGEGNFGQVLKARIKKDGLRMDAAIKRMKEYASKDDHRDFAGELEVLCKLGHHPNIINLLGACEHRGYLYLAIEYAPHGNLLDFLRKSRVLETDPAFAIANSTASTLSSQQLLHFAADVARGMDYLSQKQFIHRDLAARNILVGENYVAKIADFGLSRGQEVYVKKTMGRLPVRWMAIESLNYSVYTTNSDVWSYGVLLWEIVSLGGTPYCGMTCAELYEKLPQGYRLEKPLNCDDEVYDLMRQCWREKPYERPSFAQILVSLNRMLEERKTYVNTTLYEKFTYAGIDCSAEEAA

[21] = biological target: Insulin-like growth factor 1 receptor (Homo sapiens) (UniProt P08069); experiment: Inhibition of human IGF-1R at 0.1 uM by KINOMEscan assay relative to control
Chain of Insulin-like growth factor 1 receptor (Homo sapiens) (P08069 31-736 limits assumed): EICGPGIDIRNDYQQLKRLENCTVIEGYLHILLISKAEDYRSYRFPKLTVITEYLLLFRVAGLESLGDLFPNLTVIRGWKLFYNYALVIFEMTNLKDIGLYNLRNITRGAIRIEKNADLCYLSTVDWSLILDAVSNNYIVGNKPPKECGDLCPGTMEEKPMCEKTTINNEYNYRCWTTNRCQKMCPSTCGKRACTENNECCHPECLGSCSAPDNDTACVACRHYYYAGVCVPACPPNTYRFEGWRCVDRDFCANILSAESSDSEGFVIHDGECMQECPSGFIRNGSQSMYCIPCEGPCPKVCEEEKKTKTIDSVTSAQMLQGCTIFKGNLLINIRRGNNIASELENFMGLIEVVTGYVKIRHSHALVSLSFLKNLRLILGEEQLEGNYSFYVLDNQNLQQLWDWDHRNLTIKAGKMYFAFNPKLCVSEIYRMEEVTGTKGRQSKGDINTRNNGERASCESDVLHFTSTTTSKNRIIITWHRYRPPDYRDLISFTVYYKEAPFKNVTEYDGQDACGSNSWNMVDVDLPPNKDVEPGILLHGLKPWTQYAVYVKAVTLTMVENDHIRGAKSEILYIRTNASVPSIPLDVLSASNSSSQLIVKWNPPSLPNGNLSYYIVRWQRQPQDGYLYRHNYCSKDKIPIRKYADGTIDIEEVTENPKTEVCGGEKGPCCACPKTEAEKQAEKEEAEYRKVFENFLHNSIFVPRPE
Chain of Insulin-like growth factor 1 receptor (Homo sapiens) (P08069 741-1367 limits assumed): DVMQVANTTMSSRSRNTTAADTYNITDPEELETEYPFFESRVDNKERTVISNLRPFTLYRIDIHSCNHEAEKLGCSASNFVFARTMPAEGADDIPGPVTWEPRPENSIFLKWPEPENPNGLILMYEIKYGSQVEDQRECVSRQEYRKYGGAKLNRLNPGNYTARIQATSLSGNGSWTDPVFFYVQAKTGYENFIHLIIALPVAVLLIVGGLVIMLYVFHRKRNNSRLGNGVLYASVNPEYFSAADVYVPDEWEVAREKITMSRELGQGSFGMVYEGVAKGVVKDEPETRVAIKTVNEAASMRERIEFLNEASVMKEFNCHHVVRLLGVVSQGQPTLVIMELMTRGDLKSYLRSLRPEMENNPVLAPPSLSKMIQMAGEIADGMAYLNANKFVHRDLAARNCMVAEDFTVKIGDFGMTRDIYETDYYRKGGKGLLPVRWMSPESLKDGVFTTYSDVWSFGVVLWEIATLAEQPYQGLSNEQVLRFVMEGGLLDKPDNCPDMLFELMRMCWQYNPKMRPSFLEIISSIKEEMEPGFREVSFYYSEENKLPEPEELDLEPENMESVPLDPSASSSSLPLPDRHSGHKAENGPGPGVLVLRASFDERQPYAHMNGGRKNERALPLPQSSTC

[22] = biological target: Tyrosine-protein kinase Yes (Homo sapiens) (UniProt P07947); experiment: Inhibition of human Yes at 1 uM by KINOMEscan assay relative to control
Chain of Tyrosine-protein kinase Yes (Homo sapiens) (P07947 2-543 limits assumed): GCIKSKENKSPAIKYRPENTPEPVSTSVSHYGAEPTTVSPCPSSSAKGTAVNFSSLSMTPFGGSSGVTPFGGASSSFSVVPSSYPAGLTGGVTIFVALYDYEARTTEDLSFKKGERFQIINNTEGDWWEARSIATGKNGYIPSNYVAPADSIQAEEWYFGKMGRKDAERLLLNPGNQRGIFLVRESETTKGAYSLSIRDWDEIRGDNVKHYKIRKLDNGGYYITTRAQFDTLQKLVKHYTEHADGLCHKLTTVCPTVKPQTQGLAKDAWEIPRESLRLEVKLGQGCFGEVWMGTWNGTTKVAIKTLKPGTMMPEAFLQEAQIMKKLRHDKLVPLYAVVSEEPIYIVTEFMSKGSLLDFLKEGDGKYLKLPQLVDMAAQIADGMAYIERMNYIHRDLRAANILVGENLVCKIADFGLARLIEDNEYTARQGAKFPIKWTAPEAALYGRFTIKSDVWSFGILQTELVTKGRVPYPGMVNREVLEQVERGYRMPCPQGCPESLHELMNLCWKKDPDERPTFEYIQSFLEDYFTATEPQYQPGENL

[23] = biological target: Receptor-type tyrosine-protein kinase FLT3 (Homo sapiens) (UniProt P36888); experiment: Inhibition of human FLT3 at 1 uM by KINOMEscan assay relative to control
Chain of Receptor-type tyrosine-protein kinase FLT3 (Homo sapiens) (P36888 whole entry): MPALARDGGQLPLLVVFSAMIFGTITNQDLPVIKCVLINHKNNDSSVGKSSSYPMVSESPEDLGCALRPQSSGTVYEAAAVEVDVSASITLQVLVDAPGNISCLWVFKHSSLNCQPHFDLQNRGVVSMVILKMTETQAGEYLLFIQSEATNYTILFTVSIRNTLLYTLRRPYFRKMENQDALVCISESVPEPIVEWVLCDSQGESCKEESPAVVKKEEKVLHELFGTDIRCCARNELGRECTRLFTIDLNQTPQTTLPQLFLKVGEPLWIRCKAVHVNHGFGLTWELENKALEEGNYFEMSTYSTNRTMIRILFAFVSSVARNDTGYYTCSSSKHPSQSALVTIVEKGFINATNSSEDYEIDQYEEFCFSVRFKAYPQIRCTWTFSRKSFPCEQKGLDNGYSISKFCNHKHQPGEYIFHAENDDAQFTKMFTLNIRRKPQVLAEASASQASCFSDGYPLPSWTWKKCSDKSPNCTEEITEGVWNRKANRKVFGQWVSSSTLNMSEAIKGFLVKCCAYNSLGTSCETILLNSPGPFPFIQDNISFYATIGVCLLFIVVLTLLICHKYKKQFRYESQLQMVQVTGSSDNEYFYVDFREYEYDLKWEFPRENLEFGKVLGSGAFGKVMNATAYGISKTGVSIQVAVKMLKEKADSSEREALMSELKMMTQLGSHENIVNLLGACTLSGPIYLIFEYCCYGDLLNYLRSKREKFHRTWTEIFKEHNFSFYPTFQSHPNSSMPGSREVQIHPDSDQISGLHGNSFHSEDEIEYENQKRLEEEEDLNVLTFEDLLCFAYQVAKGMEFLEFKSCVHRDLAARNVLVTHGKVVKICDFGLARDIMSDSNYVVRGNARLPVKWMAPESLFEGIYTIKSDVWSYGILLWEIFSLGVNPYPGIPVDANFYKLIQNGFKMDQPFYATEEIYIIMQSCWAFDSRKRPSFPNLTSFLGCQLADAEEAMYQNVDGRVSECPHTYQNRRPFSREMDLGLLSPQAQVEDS

[24] = biological target: Insulin-like growth factor 1 receptor (Homo sapiens) (UniProt P08069); experiment: Inhibition of human IGF-1R at 1 uM by KINOMEscan assay relative to control
[25] = tested on: Tyrosine-protein kinase ABL1 (Homo sapiens), P00519 [T315I]; experiment: Inhibition of human Abl T315I mutant at 1 uM by KINOMEscan assay relative to control

IC50 (MCF7 [19]): 0.37 µM
inhibition [20]: 28%
inhibition [21]: 43%
inhibition [22]: 100%
inhibition [23]: 92%
inhibition [24]: 98%
inhibition [25]: 100%
SMILES: CN1CCN(c2ccc(Nc3nc(-n4nc(N)c5ccccc54)c4cc[nH]c4n3)cc2)CC1
inhibition (4T1-Luc [1]): Active
Activity [2]: Non-Toxic
Activity (4T1-Luc [3]): Active
Activity (4T1 [4]): Active
Activity (MCF7 [5]): Active
Activity (4T1 [6]): 0.6%
Activity (4T1 [7]): 5.58%
Activity (4T1 [8]): 5.41%
Activity (4T1 [9]): 1.17%
Activity (MCF7 [10]): 2.3%
Activity (MCF7 [11]): 6.55%
Activity (MCF7 [12]): Dose-Dependent Effect
Activity (4T1 [13]): Dose-Dependent Effect
Activity (MCF7 [14]): Dose-Dependent Effect
Activity (4T1 [15]): Active
Activity (MCF7 [16]): Active
Activity (GES1): Non-Toxic
Activity (Vero): Non-Toxic
inhibition (A549): Active
inhibition (HCT-116): Active
inhibition (4T1 [17]): Tde
inhibition (MCF7 [18]): Tde
inhibition (MDA-MB-231): Active
IC50 (HEY): > 3 µM
